This is an account of results in patent publication US20110065675A1, “AZO DYE RELATED SMALL MOLECULE MODULATORS OF PROTEIN-PROTEIN INTERACTIONS” (University of Miami, priority 2008, published 2011).

The test relates to human CD19+ B cells. The experiment in a line: Inhibition of CD154-induced human B-cell proliferation (BrdU ELISA). The test is classed as cell-based. An excerpt:
CD40 stimulation is an important proliferation signal for human B cell proliferation (Fecteau et al., “CD40 stimulation of human peripheral B lymphocytes: distinct response from naive and memory cells. J. Immunol., vol. 171, pp. 4621-4629, 2003; Wiesner et al., “Conditional immortalization of human B cells by CD40 ligation,” PLoS ONE, vol. 3, pp. e1464, 2008), and soluble CD154 (CD40 ligand) can dose-dependently induce the proliferation of human CD19^+ B cells as measured by standard proliferation .assays. […]
The detailed procedure is as follows: Frozen MPB CD19^+ B lymphocytes (approximately 10^6 cells per vial) were obtained from StemCells Technologies (Vancouver, Canada), thawed in a 37° C. water bath until no crystal piece was left, and the cell suspension was transferred to a 50 mL conical tube. […] This was repeated, the cells were counted, and the concentration of viable cells was adjusted to approximately 1×10^6 cells/mL. […] A colorimetric cell proliferation ELISA BrdU from Roche Applied Science (Indianapolis, Ind.) was used as immunoassay for quantification of cell proliferation based on the measurement of BrdU incorporation during DNA replication. […]
On the technique in general: Uptake of a labelled nucleoside into DNA is a usual measure of proliferation.

Broadly, the IC50 is the concentration at which inhibition is half-maximal.

For the compound `Cc1ccc(C(=O)Nc2ccc(S(=O)(=O)O)c3cc(S(=O)(=O)O)cc(S(=O)(=O)O)c23)cc1NC(=O)c1cccc(NC(=O)Nc2cccc(C(=O)Nc3cc(C(=O)Nc4ccc(S(=O)(=O)O)c5cc(S(=O)(=O)O)cc(S(=O)(=O)O)c45)ccc3C)c2)c1` [Suramin, reference compound], the IC50 (Homo sapiens, B-cell, CD19+ B cells, 48 h + 48 h BrdU) was in the range of 50 to 100 µM.
In the case of `O=C([O-])C1=NN(c2ccc(S(=O)(=O)[O-])cc2)C(=O)C1N=Nc1ccc(S(=O)(=O)[O-])cc1.[Na+].[Na+].[Na+]` (centres unmarked) [Tartrazine (FD&C yellow 5), Tartrazine, reference compound], the “Inhibition of CD154-induced B-cell proliferation” value is “no proliferation inhibiting activity”.
